Test results reported in US20230406843A1, “Progranulin Modulators and Methods of Using the Same” (ARKUDA THERAPEUTICS, priority 2020, published 2023).

Key:
[1] = system: progranulin; assay: Progranulin induction cellular assay (ELISA of secreted mouse PGRN); format: cell-based; conditions: progranulin induction assay; mouse pMG, primary cortical neurons and BV-2 cell lines named, cell type not given; ELISA-based readout; read-out: EC50
Procedure, shortened: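 Mouse primary microglia, primary cortical neurons and BV-2 cells are used. BV-2 cells are plated in 96-well format the day before, with a 1 h attachment and 16 h incubation. Progranulin secreted into the medium is quantified by ELISA.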

[2] = system: progranulin; assay: In vivo progranulin secretion assay after oral administration; conditions: oral administration at 5 mg/kg; progranulin secretion post dose relative to the control
Experimental: In vivo Assays: Progranulin can be detected in tissue sample or biofluids including blood, plasma, brain, liver and cerebrospinal fluid (CSF) from different non-human animals including rat, mouse, dog, and cynomolgus monkeys. Progranulin concentration can be detected using one or more methods including an enzyme-linked immunosorbent assay (ELISA). Non-human animals including rat, mouse, dog, and cynomolgus monkeys are administered a compound as disclosed herein by one of several routes of administration including oral, subcutaneous, and intravenous routes of administration. Samples of tissue or biofluids are collected at specific times before and following compound administration. The amount of progranulin in a specific sample collected after compound administration is compared to the amount of progranulin detected in a sample of the same tissue or biofluid obtained prior to compound administration. […] Test compounds can be administered one or more times. When compounds are administered more than one time, the number of doses and the intervals between doses can be adjusted to any combination. For example, a test compound can be administered a single time, a test compound can be administered 8 times at intervals of 12 hours, and a test compound can be administered 4 times at intervals of 24 hours. The ability of a compound to increase progranulin can be quantified in several ways. […]

## N[C@@H]1CC[C@@H](C(=O)N2CCc3ccccc3[C@@H]2c2ccc(F)cc2)OC1 [Compound 5015, ((2S,5R)-5-aminotetrahydro-2H-pyran-2-yl)((S)-1-(4-fluorophenyl)-3,4-dihydroisoquinolin-2(1H)-yl)methanone]
[1]
  EC50: 0.09 µM
[2]
  Activity Level: 7 (at least about 300% (Activity level 7))

## N[C@H]1CC[C@H](C(=O)N2CCc3ccccc3[C@@H]2c2ccc(F)cc2)OC1 [Compound 5042, ((2R,5S)-5-aminotetrahydro-2H-pyran-2-yl)((S)-1-(4-fluorophenyl)-3,4-dihydroisoquinolin-2(1H)-yl)methanone]
[1]
  EC50: 0.079 µM
[2]
  Activity Level: 6 (at least about 250% (Activity level 6))

## N[C@@H]1CO[C@@H](C(=O)N2CCc3ccccc3[C@@H]2c2ccc(F)cc2)C[C@H]1F [Compound 5061, ((2R,4R,5R)-5-amino-4-fluorotetrahydro-2H-pyran-2-yl)((S)-1-(4-fluorophenyl)-3,4-dihydroisoquinolin-2(1H)-yl)methanone]
[1]
  EC50: 0.478 µM

## N[C@H]1C[C@H](C(=O)N2CCc3ccccc3[C@@H]2c2ccc(F)cc2)OC[C@H]1F [Compound 5087, ((2R,4S,5S)-4-amino-5-fluorotetrahydro-2H-pyran-2-yl)((S)-1-(4-fluorophenyl)-3,4-dihydroisoquinolin-2(1H)-yl)methanone]
[1]
  EC50: 0.0421 µM

## CN[C@H]1C[C@H](C(=O)N2CCc3ccccc3[C@@H]2c2ccc(F)cc2)OC[C@@H]1OC [Compound 5503, ((S)-1-(4-fluorophenyl)-3,4-dihydroisoquinolin-2(1H)-yl)((2R,4S,5R)-5-methoxy-4-(methylamino)tetrahydro-2H-pyran-2-yl)methanone]
[1]
  EC50: 0.005 µM
